IC50 and melting point data for one compound are collected here from patent US20110257171A1, “NOVEL IMIDAZO[1,2-A]PYRIDINE DERIVATIVES, METHOD FOR THE PREPARATION THEREOF, USE THEREOF AS MEDICAMENTS, PHARMACEUTICAL COMPOSITIONS AND NOVEL USE IN PARTICULAR AS MET INHIBITORS” (SANOFI-AVENTIS, priority 2008, published 2011).

Data set [1] concerns HCT116 cells and MKN45 cells. In words: Test C: measurement of cell proliferation by 14C-thymidine pulse. The following applies: 14C-thymidine incorporation, 96 h of treatment; cell line not given. In kind it is cell-based. On the procedure:
The cells are seeded into Cytostar 96-well plates in 180 μl for 4 hours at 37° C. and 5% CO2: HCT116 cells in a proportion of 2500 cells per well in DMEM medium+10% foetal calf serum+1% L-glutamine, and MKN45 cells in a proportion of 7500 cells per well in RPMI medium+10% foetal calf serum+1% L-glutamine. After these 4 hours of incubation, the products are added in 10 μl as a […] concentrated solution according to the dilution method mentioned for the ELISA. The products are tested at 10 concentrations in duplicate from 10 000 nM to 0.3 nM with an increment of 3.
After treatment for 72 h, 10 μl of ^14C-thymidine at 10 μCi/ml are added so as to obtain 0.1 μCi per well. The ^14C-thymidine incorporation is measured on a Micro-Beta machine (Perkin-Elmer) after 24 hours of pulse and 96 h of treatment.
All the steps of the assay are automated on BIOMEK 2000 or TECAN stations.

Data set [2] has as its target T1, MET (Homo sapiens, UniProt P08581). In words: Test B: inhibition of the autophosphorylation of MET, ELISA technique (pppY1230, 1234, 1235) in MKN45 cells. In kind it is cell-based. Set-up: endogenous in cells; host or cells: MKN45 cells. The settings on record: 1 h treatment, phosphoMET ELISA. The method, then: B) Test B: Inhibition of the Autophosphorylation of Met; ELISA Technique (pppY1230, 1234, 1235) a) Cell lysates: MKN45 cells are seeded into 96-well plates (cell coat BD polylysine) at 20 000 cells/well in 200 μl of RPMI medium+10% FCS+1% L-glutamine. They are left to adhere for 24 hours in an incubator.
The cells are treated the day after seeding with the products at 6 concentrations, in duplicate, for 1 h. At least 3 control wells are treated with the same final amount of DMSO.
Product dilution: Stock at 10 mM in pure DMSO—range from 10 mM to 30 μM with an increment of 3 in pure DMSO—intermediate dilutions to 1/50 in culture medium and then removal of 10 μl added directly to the cells (200 μl): final range of 10 000 to 30 nM.
At the end of the incubation, the supernatant is carefully removed and rinsing is performed with 200 μl of PBS. Next, 100 μl of lysis buffer are placed directly in the wells on ice and incubated at 4° C. for 30 minutes. Lysis buffer: 10 mM Tris HCl, pH 7.4, 100 mM NaCl, 1 mM EDTA, 1 mM EGTA, 1% Triton X-100, 10% glycerol, 0.1% SDS, 0.5% deoxycholate, 20 mM NaF, 2 mM Na3VO4, 1 mM PMSF and cocktail of antiproteases.
The 100 μl of lysates are transferred into a V-bottomed polypropylene plate and the ELISA is performed immediately, or the plate is frozen at −80° C.
70 μl of kit dilution buffer+30 μL of cell lysate, or 30 μl of lysis buffer for the blanks, are added to each well of the kit plate. Incubation is carried out for 2 h with gentle agitation at ambient temperature.
The wells are rinsed 4 times with 400 μl of kit washing buffer. Incubation is carried out with 100 μl of anti-phospho MET antibody for 1 hour at ambient temperature.
The wells are rinsed 4 times with 400 μl of kit washing buffer. Incubation is carried out with 100 μl of anti-rabbit HRP antibody for 30 minutes at ambient temperature (except for the wells of chromogen alone).
The wells are rinsed 4 times with 400 μl of kit washing buffer. 100 μL of chromogen are introduced and incubation is carried out for 30 minutes in the dark at ambient temperature.
The reaction is stopped with 100 μl of stop solution. The plate is read without delay at […], 0.1 second on a Wallac Victor plate reader.
Target sequence in this assay (P08581 25-1390): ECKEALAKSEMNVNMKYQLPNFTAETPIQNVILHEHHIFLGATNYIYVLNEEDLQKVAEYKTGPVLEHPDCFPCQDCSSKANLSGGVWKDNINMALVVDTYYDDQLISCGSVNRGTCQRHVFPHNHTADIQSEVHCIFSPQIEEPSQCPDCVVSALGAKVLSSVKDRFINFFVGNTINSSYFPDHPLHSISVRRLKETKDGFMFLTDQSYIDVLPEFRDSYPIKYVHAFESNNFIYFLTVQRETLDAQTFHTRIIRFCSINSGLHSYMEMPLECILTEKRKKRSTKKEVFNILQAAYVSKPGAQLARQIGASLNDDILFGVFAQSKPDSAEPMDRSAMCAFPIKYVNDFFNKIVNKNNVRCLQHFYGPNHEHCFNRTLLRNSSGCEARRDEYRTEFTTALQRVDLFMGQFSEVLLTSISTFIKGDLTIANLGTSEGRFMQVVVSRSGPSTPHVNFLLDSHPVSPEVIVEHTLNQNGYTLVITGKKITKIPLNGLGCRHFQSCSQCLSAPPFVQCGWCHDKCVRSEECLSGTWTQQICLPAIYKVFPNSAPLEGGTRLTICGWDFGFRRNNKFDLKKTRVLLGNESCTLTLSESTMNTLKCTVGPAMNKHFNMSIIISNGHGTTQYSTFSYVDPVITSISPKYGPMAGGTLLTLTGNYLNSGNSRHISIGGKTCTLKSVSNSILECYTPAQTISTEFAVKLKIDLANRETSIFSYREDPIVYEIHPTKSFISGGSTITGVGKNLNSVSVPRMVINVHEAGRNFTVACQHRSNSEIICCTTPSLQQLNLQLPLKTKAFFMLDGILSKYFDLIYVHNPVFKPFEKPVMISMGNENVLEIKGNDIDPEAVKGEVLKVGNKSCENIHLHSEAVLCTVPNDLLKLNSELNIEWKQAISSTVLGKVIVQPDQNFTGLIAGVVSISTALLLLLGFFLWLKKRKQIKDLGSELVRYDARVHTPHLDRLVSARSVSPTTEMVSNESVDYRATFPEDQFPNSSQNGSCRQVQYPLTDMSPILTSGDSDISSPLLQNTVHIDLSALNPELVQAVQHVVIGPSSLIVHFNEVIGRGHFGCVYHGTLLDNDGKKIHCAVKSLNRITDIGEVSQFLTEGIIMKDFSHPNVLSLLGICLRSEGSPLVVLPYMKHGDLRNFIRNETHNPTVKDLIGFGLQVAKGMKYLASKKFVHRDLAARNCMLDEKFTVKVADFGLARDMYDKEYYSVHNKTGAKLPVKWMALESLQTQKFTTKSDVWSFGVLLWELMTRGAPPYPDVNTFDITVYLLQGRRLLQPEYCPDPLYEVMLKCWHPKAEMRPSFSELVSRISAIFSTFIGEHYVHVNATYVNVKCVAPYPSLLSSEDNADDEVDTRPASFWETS

Data set [3] has as its target T1, MET. As to the kind of experiment: Test A: HTRF MET assay in 96-well format. Type of data set: biochemical. Also on record: The His-Tev-MET (956-1390) recombinant DNA in pFastBac (Invitrogen) is transfected into insect cells; His (N, cleaved yes); Tev cleavage site (N); made in house; host or cells: SF21 insect cells (baculovirus, pFastBac). The settings on record: MET 5 nM, 10 μM ATP. On the procedure:
The His-Tev-MET (956-1390) recombinant DNA in pFastBac (Invitrogen) is transfected into insect cells and, after several viral amplification steps, the final baculovirus stock is tested for the expression of the protein of interest.
After infection for 72 h at 27° C. with the recombinant virus, SF21 cell cultures are harvested by centrifugation and the cell pellets are stored at −80° C.
The cell pellets are resuspended in the lysis buffer (buffer A [50 mM HEPES, pH 7.5, 250 mM NaCl, 10% glycerol, 1 mM TECP]; +cocktail of protease inhibitors, Roche Diagnostics, without EDTA, ref 1873580), stirred at 4° C. until the mixture is homogeneous, and then lysed mechanically using a “Dounce” type apparatus.
After centrifugation, the lysis supernatant is incubated for 2 h at 4° C. with nickel chelate resin (His-Trap 6 Fast Flow™, GE HealthCare). After washing with 20 volumes of buffer A, the suspension is packed into a column, and the proteins are eluted with a gradient of buffer B (buffer A+290 mM imidazole).
The fractions containing the protein of interest, for the purpose of electrophoretic analysis (SDS PAGE), are combined, concentrated by ultrafiltration (10 kDa cut-off) and injected onto an exclusion chromatography column (Superdex® 200, GE HealthCare) equilibrated in buffer A.
After enzymatic cleavage of the histidine tag, the protein is reinjected onto a new IMAC nickel chelate chromatography column (His-Trap 6 Fast Flow™ GE HealthCare) equilibrated in buffer A. The fractions eluted with a gradient of buffer B and containing the protein of interest after electrophoresis (SDS PAGE) are finally combined and stored at −80° C.
For the production of autophosphorylated protein, the previous fractions are incubated for 1 h at ambient temperature after the addition of 2 mM ATP, 2 mM MgCl2 and 4 mM Na3VO4. After the reaction has been stopped with 5 mM of EDTA, the reaction mixture is injected onto a HiPrep desalifying column (GE HealthCare) pre-equilibrated in buffer A+4 mM Na3VO4, and the fractions containing the protein of interest (SDS PAGE analysis) are combined and stored at −80° C. The degree of phosphorylation is verified by mass spectrometry (LC-MS) and by peptide mapping.
MET at a final concentration of 5 nM is incubated in a final volume of 50 μl of enzymatic reaction in the presence of the test molecule (for a final concentration range of from 0.17 nM to 10 μM, 3% DMSO final concentration) in 10 mM MOPS buffer, pH 7.4, 1 mM DTT, 0.01% Tween 20. The reaction is initiated with the substrate solution to obtain final concentrations of 1 μg/ml poly-(GAT), 10 μM ATP and 5 mM MgCl2. After incubation for 10 min at ambient temperature, the reaction is stopped with a 30 μl mix so as to obtain a final solution of 50 mM Hepes, pH 7.5, 500 mM potassium fluoride, 0.1% BSA and 133 mM EDTA in the presence of 80 ng of streptavidin 61 SAXLB Cis-Bio Int. and 18 ng of anti-phosphotyrosine Mab PT66-Europium Cryptate per well. After incubation for 2 hours at ambient temperature, the reading is taken at 2 wavelengths, 620 nm and 665 nm, on a reader for the TRACE/HTRF technique, and the % inhibition is calculated from the 665/620 ratios.
Target sequence in this assay (P08581 956-1390): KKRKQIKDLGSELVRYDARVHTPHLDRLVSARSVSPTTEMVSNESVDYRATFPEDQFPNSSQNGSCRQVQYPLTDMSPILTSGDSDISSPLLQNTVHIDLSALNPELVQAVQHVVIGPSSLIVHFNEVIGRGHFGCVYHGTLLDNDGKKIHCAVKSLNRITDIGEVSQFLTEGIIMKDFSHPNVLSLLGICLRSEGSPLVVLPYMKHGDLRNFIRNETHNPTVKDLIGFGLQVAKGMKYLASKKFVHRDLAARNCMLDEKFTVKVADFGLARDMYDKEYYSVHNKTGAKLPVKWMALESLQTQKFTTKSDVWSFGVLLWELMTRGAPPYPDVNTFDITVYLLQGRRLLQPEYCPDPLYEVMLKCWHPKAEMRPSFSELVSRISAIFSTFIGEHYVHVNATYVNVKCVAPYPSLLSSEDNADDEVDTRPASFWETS

pIC50: −log10 of the molar value. Bounds are passed on as bounds.

Compound `CC(C)(C)OC(=O)N1CCC(n2cc(-c3ccc4ncc(Sc5ccc6nc(NC(=O)C7CC7)sc6c5)n4c3)cn2)CC1` [Example 11, tert-butyl 4-{4-[3-({2-[(cyclopropylcarbonyl)amino]-1,3-benzothiazol-6-yl}sulphanyl)imidazo[1,2-a]pyridin-6-yl]-1H-pyrazol-1-yl}piperidine-1-carboxylate] displayed a melting point of 247 °C. Moreover, in data set [1], the pIC50 was above 6.00. In data set [2], this compound had a pIC50 above 7.00. Also, in data set [3], the pIC50 is above 7.00.
